The values that follow come from the OPERA property sets (Mansouri et al. 2018).

Molecules are shown by their SMILES. Converted amounts (≈) assume the structure as drawn.

Conditions in one data set: not given
`COCCOC(=O)CCCCC(=O)OCCOC` displayed a solubility of 54.1 mM (≈ 14200 µg/mL).

On to `O=C1CNC(=O)C(Cc2ccc(O)cc2)N1` (stereo unspecified), for which the solubility is 90.8 mM (≈ 20000 µg/mL).

The molecule `CCC(CC)C(=O)N(CC)CC` registered a solubility of 81.7 mM (≈ 14000 µg/mL).

For `CCOC(CC(C)O)OCC` (stereo unspecified), the solubility stood at 1230 mM (≈ 200000 µg/mL).

`CC(C)C=CCC(=O)O` showed a solubility of 71 mM (≈ 9100 µg/mL).

Molecule `COCC(=O)c1ccccc1` yielded a solubility of 173 mM (≈ 26000 µg/mL).

The molecule `O=C(O)c1cc(=O)nc(-c2ccccc2)[nH]1` registered a solubility of 6.15 mM (≈ 1330 µg/mL).

`O=C(c1cccc2ccccc12)N(O)c1ccccc1` gave a solubility of 0.114 mM (≈ 30 µg/mL).

As to `CCCCCSS(=O)CCCCC` (stereo unspecified), the solubility turned out to be 0.674 mM (≈ 150 µg/mL).

`CC1NC(=O)CNC1=O` (stereo unspecified) yielded a solubility of 1950 mM (≈ 250000 µg/mL).

For the molecule `NC(CS(=O)(=O)c1ccc(Cl)cc1)C(=O)O` (stereo unspecified), the solubility was 2.93 mM (≈ 774 µg/mL).

With `CCCC(=O)OCCOCCOCCOC(=O)CCC`, the solubility came to 27.6 mM (≈ 8000 µg/mL).

Regarding `Oc1ccc(-c2ccccc2)cc1O`, the solubility is 8.59 mM (≈ 1600 µg/mL).

Molecule `O=C(Cc1ccccc1)N[C@@H](CSSC[C@H](NC(=O)Cc1ccccc1)C(=O)O)C(=O)O` returned a solubility of 14.7 mM (≈ 7000 µg/mL).

`Cc1cc(N)n(-c2ccccc2)n1` gave a solubility of 115 mM (≈ 20000 µg/mL).

As to `CCOC(=O)N(CC)CC`, the solubility turned out to be 86.1 mM (≈ 12500 µg/mL).

Molecule `CCN(CC)CN(CC)CC` came in with a solubility of 632 mM (≈ 100000 µg/mL).

Take `Oc1ccc(Sc2ccccc2)cc1`: the solubility came out at 1.68 mM (≈ 340 µg/mL).

Consider `Oc1ncncc1Br`, for which the solubility was determined as 357 mM (≈ 62500 µg/mL).

With `CCC(CC)(C(N)=O)C(N)=O`, the solubility was 63.2 mM (≈ 10000 µg/mL).

The data set is the same for the next values; noted with them: 20 °C.
On to `CC(C)=NNC(N)=O`, for which the solubility worked out at 540 mM (≈ 62200 µg/mL).

In turn, `c1ccc2c(c1)Nc1ccc3ccccc3c1S2` gave a solubility of 0.000267 mM (≈ 0.0667 µg/mL).

Consider `CC(C)(O)CCl`, for which the solubility was 1450 mM (≈ 157000 µg/mL).

In turn, `CCCCC(CCC(=O)O)CC(=O)O` (stereo unspecified) had a solubility of 40 mM (≈ 8100 µg/mL).

Consider `CC(C)OC(=O)c1c(C(=O)O)cccc1[N+](=O)[O-]`, for which the solubility turned out to be 3.24 mM (≈ 820 µg/mL).

In turn, `Cc1ccc(O)c(CO)c1` gave a solubility of 485 mM (≈ 67000 µg/mL).

`O=[N+]([O-])c1cccc(CO)c1` displayed a solubility of 3.85 mM (≈ 590 µg/mL).

`N#Cc1c(O)cc(Cl)[nH]c1=O` registered a solubility of 58.6 mM (≈ 10000 µg/mL).

As for `COc1ccc(CO)cc1`, the solubility came to 14.5 mM (≈ 2000 µg/mL).

Take `Cc1cc(C(O)(c2ccc(N)cc2)c2ccc(N)cc2)ccc1N`: the solubility turned out to be 0.939 mM (≈ 300 µg/mL).

With `Oc1cncc2cccnc12`, the solubility amounted to 22 mM (≈ 3220 µg/mL).

`C=CCC1(CC)C(=O)NC(=O)NC1=O`: the solubility is 20.5 mM (≈ 4020 µg/mL).

Molecule `CC(C#N)(CCC(=O)O)/N=N/C(C)(C#N)CCC(=O)O` (stereo unspecified) returned a solubility of 9.81 mM (≈ 2750 µg/mL).

`CC(C)Cc1nnc(NS(=O)(=O)c2ccc(N)cc2)s1` yielded a solubility of 0.15 mM (≈ 47 µg/mL).

`O=C(O)C(I)=C(Br)I` gave a solubility of 51.4 mM (≈ 20700 µg/mL).

Turning to `O=S(=O)(CCCl)CCCl`, the solubility was determined as 31.4 mM (≈ 6000 µg/mL).

As for `C=CCC(C(=O)O)C(C)C(=O)O` (stereo unspecified), the solubility was found to be 87.1 mM (≈ 15000 µg/mL).

Molecule `S=c1nc[nH]c2nccnc12` displayed a solubility of 2.25 mM (≈ 370 µg/mL).

As to `CC=C(CCCC)C(=O)NC(N)=O`, the solubility was found to be 1.63 mM (≈ 300 µg/mL).

For the molecule `Cc1nc2c(=O)n(C)c(=O)n(C)c2nc1C`, the solubility was 45.4 mM (≈ 10000 µg/mL).

In the case of `CN1C(=O)COc2ccccc21`, the solubility amounted to 7.17 mM (≈ 1170 µg/mL).

With `CC(NC(N)=O)C(=O)O` (stereo unspecified), the solubility is 133 mM (≈ 17600 µg/mL).

Consider `C=CS(=O)(=O)Nc1ccccc1`, for which the solubility came out at 31.7 mM (≈ 5800 µg/mL).

As to `COc1ccc(C(=O)O)cc1C(=O)O`, the solubility was found to be 0.765 mM (≈ 150 µg/mL).

The same data set, now with this note: 21 °C.
In turn, `Cc1cc(O)c(C(=O)O)cc1Cl` gave a solubility of 0.75 mM (≈ 140 µg/mL).

The molecule `NC(N)=NCCS(=O)(=O)O` gave a solubility of 233 mM (≈ 39000 µg/mL).

Still in this data set, the particulars now being: 22 °C.
On to `O=C1CCCCCCCCN1`, for which the solubility is 84.4 mM (≈ 13100 µg/mL).

Regarding `O=S1(=O)NCc2ccccc21`, the solubility amounted to 30.1 mM (≈ 5100 µg/mL).

Still in this data set, the particulars now being: 23 °C.
Take `O=C(O)c1ccccc1C1OC(=O)c2ccccc21` (stereo unspecified): the solubility worked out at 0.787 mM (≈ 200 µg/mL).

With `Nc1cc([N+](=O)[O-])ccc1O`, the solubility was found to be 6 mM (≈ 925 µg/mL).

Still in this data set, the particulars now being: 25 °C.
`CCOC(=O)CCc1ccccc1`: the solubility was found to be 1.23 mM (≈ 220 µg/mL).

Consider `CC(C)CCCCCO`, for which the solubility stood at 4.97 mM (≈ 647 µg/mL).

For the molecule `O=C(O)C(=O)Nc1ccc(Cl)cc1Cl`, the solubility came to 5.29 mM (≈ 1240 µg/mL).

As for `CCCCOP(=O)(CCCC)OCCCC`, the solubility came out at 2 mM (≈ 500 µg/mL).

`N#CNC(N)=S` had a solubility of 989 mM (≈ 100000 µg/mL).

Molecule `C[Si](C)(O)O[Si](C)(C)O` registered a solubility of 661 mM (≈ 110000 µg/mL).

On to `Cc1ccc(S(=O)(=O)Oc2ccccc2C)cc1`, for which the solubility came to 0.114 mM (≈ 30 µg/mL).

Take `COS(=O)(=O)c1ccccc1`: the solubility came to 18.1 mM (≈ 3120 µg/mL).

`O=c1ccc(Br)cc(Br)c1O` registered a solubility of 0.314 mM (≈ 88 µg/mL).

In the case of `O=C(O)c1cccs1`, the solubility was 58.5 mM (≈ 7500 µg/mL).

Regarding `O=C(O)CCCCc1ccccc1`, the solubility was 3.42 mM (≈ 610 µg/mL).

Molecule `CC(NCCC#N)C(=O)O` (stereo unspecified) came in with a solubility of 985 mM (≈ 140000 µg/mL).

The molecule `CCCCCCCCCCCCCCCCNC(=O)C(C)O` (stereo unspecified) registered a solubility of 0.223 mM (≈ 70 µg/mL).

Molecule `Nc1cc([N+](=O)[O-])ccc1I` registered a solubility of 0.0379 mM (≈ 10 µg/mL).

Regarding `CCCOCCC(=O)OCCC`, the solubility worked out at 20.7 mM (≈ 3600 µg/mL).

For the molecule `CCc1cc(C)cc(O)c1`, the solubility was determined as 17 mM (≈ 2320 µg/mL).

`CCCCOP(=O)(O)OCCCC`: the solubility is 81.8 mM (≈ 17200 µg/mL).

For the molecule `c1cn[nH]c1`, the solubility was determined as 285 mM (≈ 19400 µg/mL).

Consider `O=c1ccc(Br)ccc1O`, for which the solubility turned out to be 0.274 mM (≈ 55 µg/mL).

Molecule `C[C@H](O)C(F)(F)F` gave a solubility of 2040 mM (≈ 233000 µg/mL).

Consider `CCCCCCCCOCCO`, for which the solubility was found to be 7.5 mM (≈ 1310 µg/mL).

`CCN(C(N)=O)c1ccccc1C`: the solubility is 617 mM (≈ 110000 µg/mL).

With `Nc1ccc2c(c1)C(=O)OC2`, the solubility came to 9.09 mM (≈ 1360 µg/mL).

Turning to `COC(C)C(NC=O)C(=O)O` (racemic), the solubility came to 242 mM (≈ 39000 µg/mL).

Molecule `CCC(CC)(C(=O)O)C(CC)(CC)C(=O)O` returned a solubility of 1.09 mM (≈ 250 µg/mL).

In turn, `Cn1cc([N+](=O)[O-])c(=O)[nH]c1=O` registered a solubility of 10.1 mM (≈ 1720 µg/mL).

Molecule `ON=C1CCCCCCCCC1=NO` yielded a solubility of 2.62 mM (≈ 520 µg/mL).

Still in this data set, the particulars now being: 26 °C.
In turn, `O=C(S)CCCCCCCCC(=O)S` had a solubility of 0.853 mM (≈ 200 µg/mL).

Molecule `C=CCc1ccc(O)c(O)c1` had a solubility of 166 mM (≈ 25000 µg/mL).

The data set is the same for the next values; noted with them: 27 °C.
As to `O=C(O)CCC(=O)OC[C@@H](NC(=O)C(Cl)Cl)[C@H](O)c1ccc([N+](=O)[O-])cc1`, the solubility amounted to 8.27 mM (≈ 3500 µg/mL).

Still in this data set, the particulars now being: 30 °C.
The molecule `CN(C)C(=O)c1ccccc1C(=O)N(C)C` returned a solubility of 3220 mM (≈ 710000 µg/mL).

In general, solubility refers to how much of the substance goes into solution per volume. Read a high solubility as a readily soluble substance.
